Assays:
[1] = tested on: patients with elevated triglyceride levels on statin therapy; test: REDUCE-IT total (first and subsequent) ischemic events (Example 3; negative binomial, Wei-Lin-Weissfeld, Andersen-Gill, joint frailty models); assay type: in vivo, human; design: total (first and subsequent) ischemic events for primary composite endpoint, relative risk reduction / first events, reduction / second events, reduction / third events, reduction / fourth or more events, reduction: concentration or dose not given beside the values; conditions: for HR (95% CI), Key Secondary Composite Endpoint / HR (95% CI), Primary Composite Endpoint / RR (95% CI), Key Secondary Composite Endpoint, total events / RR (95% CI), Primary Composite Endpoint, total events: full dataset; for RR (95% CI), Key Secondary Composite Endpoint, total events / RR (95% CI), Primary Composite Endpoint, total events: icosapent ethyl vs placebo
Text: The following study was a multi-center, placebo-controlled clinical trial the details of which are described above in Example 1, the REDUCE-IT design. […] The main outcomes were total primary composite endpoint events defined as cardiovascular death, nonfatal myocardial infarction, nonfatal stroke, coronary revascularization, or hospitalization for unstable angina and total key secondary composite endpoint events defined as cardiovascular death, nonfatal myocardial infarction, or nonfatal stroke. In the context of this study, total events refer to any first event as well as any subsequent event. Differences in total events were determined using other statistical models, including Andersen-Gill, Wei-Lin-Weisfeld (Li and Lagakos), both pre-specified, and a post hoc and joint-frailty analysis.
For the present prespecified analysis, the primary outcome was the total of first plus subsequent ischemic events consisting of the composite of cardiovascular death, nonfatal myocardial infarction, nonfatal stroke, coronary revascularization, or hospitalization for unstable angina. […] Exploratory analyses of the total of first and subsequent events were also performed for the key secondary composite endpoint.
Baseline characteristics were compared between treatment groups using the chi-squared test for categorical variables and the Wilcoxon rank sum test for continuous variables. There are several methods for analyzing first and subsequent (recurrent) event data. As a pre-specified statistical method, a negative binomial regression was used to calculate rates and rate ratios for total cardiovascular events, which accounts for the variability in each patient's risk of events. As pre-specified supportive analyses, the modified Wei-Lin-Weissfeld method (Li and Lagakos modification) was used to calculate hazard ratios (HRs) for the time to the first event, second event, or third event. An additional pre-specified analysis, the Andersen-Gill model using a Cox proportional-hazard with the counting-process formulation was performed to model the total events. In addition, in order to account for informative censoring due to cardiovascular death, the HR for total non-fatal events was calculated using a joint frailty model (See Rondeau V. Joint frailty models for recurring events and death using maximum penalized likelihood estimation: application on cancer events. Biostatistics. 2007; 8:708-21). The joint frailty model simultaneously estimates hazard functions for non-fatal and fatal CV events and takes into account the fact that patients who are prone to have nonfatal events have an elevated risk of a cardiovascular death. The application of the joint frailty model used a gamma distribution for the frailty term.
Statistical analyses using the full adjudicated endpoint events dataset without exclusions using this bundling approach were also determined.

[2] = tested on: patients with elevated triglyceride levels on statin therapy; test: REDUCE-IT endpoints by pooled (icosapent ethyl and placebo) EPA blood level tertile; assay type: in vivo, human; conditions: icosapent ethyl and placebo pooled
Text: The objective of this study is to assess the effects of administering icosapent ethyl at 4 g per day to patients from the REDUCE-IT trial of Example 1. More specifically, patients from the REDUCE-IT trial of Example 1 were stratified by their EPA levels into one of three tertiles. Following stratification, the objective was to determine if the RRR differs between patients having EPA levels in the three different tertiles. For the data collected as shown in Tables 38-43 and FIGS. 52, 53, and 56-59, the tertiles were established based on data collected from subjects at 1 year, 2 years, and last visit following icosapent ethyl administration compared to placebo. Data are presented as an average of 1 year, 2 year, […], and end of study values. The data was further analyzed use both pooled and unpooled statistically methods.
(0.84 for lowest vs. placebo, 0.72 for middle vs. placebo, and 0.65 for highest vs. placebo).

[3] = Andersen-Gill (I) model, adjusted, vs placebo
[4] = Andersen-Gill (I) model, reduced dataset, vs placebo
[5] = Andersen-Gill (I) model, unadjusted, vs placebo
[6] = Andersen-Gill (II) model, adjusted, vs placebo
[7] = Andersen-Gill (II) model, reduced dataset, vs placebo
[8] = Andersen-Gill (II) model, unadjusted, vs placebo
[9] = Joint frailty model, reduced dataset, vs placebo
[10] = Modified WLW model, reduced dataset, vs placebo
[11] = Modified WLW, first event, adjusted, vs placebo
[12] = Modified WLW, first event, unadjusted, vs placebo
[13] = Modified WLW, second event, adjusted, vs placebo
[14] = Modified WLW, second event, unadjusted, vs placebo
[15] = Modified WLW, third event, adjusted, vs placebo
[16] = Modified WLW, third event, unadjusted, vs placebo
[17] = N = 4089, same-day multiple endpoints handled as a single event
[18] = Negative binomial model, adjusted for stratification factors
[19] = Negative binomial model, reduced dataset, vs placebo
[20] = Negative binomial model, unadjusted
[21] = Wei-Lin-Weissfeld model, Example 3
[22] = per 1000 patients treated for five years
[23] = highest >118.1 μg/mL vs lowest ≤31.305 μg/mL
[24] = highest >118.1 μg/mL vs middle >31.305 to ≤118.1 μg/mL
[25] = middle >31.305 to ≤118.1 μg/mL vs lowest ≤31.305 μg/mL

## CC/C=C\C/C=C\C/C=C\C/C=C\C/C=C\CCCC(=O)OCC [icosapent ethyl, eicosapentaenoic acid ethyl ester]
[1]; [3]
  HR (95% CI), Key Secondary Composite Endpoint: 0.71
  HR (95% CI), Primary Composite Endpoint: 0.68
[1]; [4]
  Adjusted HR, key secondary composite endpoint, total events: 0.72
  Adjusted HR, primary composite endpoint, total events: 0.69
  Unadjusted HR, key secondary composite endpoint, total events: 0.72
  Unadjusted HR, primary composite endpoint, total events: 0.69
[1]; [5]
  HR (95% CI), Key Secondary Composite Endpoint: 0.71
  HR (95% CI), Primary Composite Endpoint: 0.68
[1]; [6]
  HR (95% CI), Key Secondary Composite Endpoint: 0.71
  HR (95% CI), Primary Composite Endpoint: 0.68
[1]; [7]
  Adjusted HR, key secondary composite endpoint, total events: 0.72
  Adjusted HR, primary composite endpoint, total events: 0.69
  Unadjusted HR, key secondary composite endpoint, total events: 0.72
  Unadjusted HR, primary composite endpoint, total events: 0.69
[1]; [8]
  HR (95% CI), Key Secondary Composite Endpoint: 0.71
  HR (95% CI), Primary Composite Endpoint: 0.68
[1]; Example 3
  first events, reduction: 25%
  fourth or more events, reduction: 48%
  second events, reduction: 32%
  third events, reduction: 31%
[1]; [9]
  HR, Cardiovascular Death, key secondary endpoint, adjusted: 0.79
  HR, Cardiovascular Death, key secondary endpoint, unadjusted: 0.79
  HR, Cardiovascular Death, primary endpoint, adjusted: 0.80
  HR, Cardiovascular Death, primary endpoint, unadjusted: 0.80
  HR, Non-fatal Cardiovascular Event, key secondary endpoint, adjusted: 0.68
  HR, Non-fatal Cardiovascular Event, key secondary endpoint, unadjusted: 0.68
  HR, Non-fatal Cardiovascular Event, primary endpoint, adjusted: 0.67
  HR, Non-fatal Cardiovascular Event, primary endpoint, unadjusted: 0.66
[1]; [10]
  Adjusted HR, key secondary composite endpoint, first event: 0.74
  Adjusted HR, key secondary composite endpoint, second event: 0.75
  Adjusted HR, key secondary composite endpoint, third event: 0.79
  Adjusted HR, primary composite endpoint, first event: 0.75
  Adjusted HR, primary composite endpoint, second event: 0.68
  Adjusted HR, primary composite endpoint, third event: 0.69
  Unadjusted HR, key secondary composite endpoint, first event: 0.74
  Unadjusted HR, key secondary composite endpoint, second event: 0.75
  Unadjusted HR, key secondary composite endpoint, third event: 0.79
  Unadjusted HR, primary composite endpoint, first event: 0.76
  Unadjusted HR, primary composite endpoint, second event: 0.69
  Unadjusted HR, primary composite endpoint, third event: 0.69
[1]; [11]
  HR (95% CI), Key Secondary Composite Endpoint: 0.74
  HR (95% CI), Primary Composite Endpoint: 0.75
[1]; [12]
  HR (95% CI), Key Secondary Composite Endpoint: 0.74
  HR (95% CI), Primary Composite Endpoint: 0.76
[1]; [13]
  HR (95% CI), Key Secondary Composite Endpoint: 0.75
  HR (95% CI), Primary Composite Endpoint: 0.68
[1]; [14]
  HR (95% CI), Key Secondary Composite Endpoint: 0.75
  HR (95% CI), Primary Composite Endpoint: 0.69
[1]; [15]
  HR (95% CI), Key Secondary Composite Endpoint: 0.79
  HR (95% CI), Primary Composite Endpoint: 0.70
[1]; [16]
  HR (95% CI), Key Secondary Composite Endpoint: 0.79
  HR (95% CI), Primary Composite Endpoint: 0.70
[1]; N = 4089
  Key secondary endpoint: Total events before reduction, % of overall events: 42.0%
  Primary endpoint: Total events before reduction, % of overall events: (40.7) %
[1]; N = 4089, after reduction
  Key secondary endpoint: Fatal events, % of overall events: 45.0%
  Key secondary endpoint: Non-fatal events, % of overall events: 40.9%
  Primary endpoint: Fatal events, % of overall events: (45.0) %
  Primary endpoint: Non-fatal events, % of overall events: (40.4) %
[1]; [17]
  Key secondary endpoint: Total events after reduction, % of overall events: 42.1%
  Primary endpoint: Total events after reduction, % of overall events: (41.0) %
[1]; [18]
  RR (95% CI), Key Secondary Composite Endpoint, total events: 0.71
  RR (95% CI), Primary Composite Endpoint, total events: 0.69
[1]; [19]
  Adjusted RR, key secondary composite endpoint, total events: 0.72
  Adjusted RR, primary composite endpoint, total events: 0.70
  Unadjusted RR, key secondary composite endpoint, total events: 0.71
  Unadjusted RR, primary composite endpoint, total events: 0.68
[1]; [20]
  RR (95% CI), Key Secondary Composite Endpoint, total events: 0.71
  RR (95% CI), Primary Composite Endpoint, total events: 0.67
[1]; [21]
  first occurrence of primary composite endpoint, HR: 0.75
  second occurrence of primary composite endpoint, HR: 0.68
[1]; in vivo
  total (first and subsequent) ischemic events for primary composite endpoint, relative risk reduction: 30%
[1]; [22]
  cardiovascular deaths prevented: 12
  coronary revascularizations prevented: 76
  episodes of hospitalization for unstable angina prevented: 16
  myocardial infarctions prevented: 42
  strokes prevented: 14
  total primary endpoint events prevented: approximately 159
[1]; placebo 44
  total key secondary endpoint event rate: 32 per 1000 patient years
[1]; placebo 89
  total (first and subsequent) primary endpoint event rate: 61 per 1000 patient years
[1]; vs placebo
  total key secondary endpoint events, RR: 0.72
  total primary endpoint events, rate ratio (RR): 0.70
[2]; [23]
  HR (95% CI), Key Secondary Endpoint, pooled EPA tertiles, Highest vs Lowest: 0.61 (0.51, 0.71)
  HR (95% CI), Primary Endpoint, pooled EPA tertiles, Highest vs Lowest: 0.65 (0.57, 0.74)
[2]; [24]
  HR (95% CI), Key Secondary Endpoint, pooled EPA tertiles, Highest vs Middle: 0.78 (0.65, 0.92)
  HR (95% CI), Primary Endpoint, pooled EPA tertiles, Highest vs Middle: 0.80 (0.70, 0.92)
[2]; [25]
  HR (95% CI), Key Secondary Endpoint, pooled EPA tertiles, Middle vs Lowest: 0.78 (0.67, 0.91)
  HR (95% CI), Primary Endpoint, pooled EPA tertiles, Middle vs Lowest: 0.81 (0.71, 0.92)

Reference: US20200261391A1, “METHODS OF REDUCING THE RISK OF A CARDIOVASCULAR EVENT IN A STATIN-TREATED SUBJECT BY INCREASING SERUM AND PLASMA EPA AND DPA LEVELS” (Amarin Pharmaceuticals Ireland Limited, priority 2019, published 2020)
